Test results reported in PMC4152014, “Glucagon-Like Peptide-1 Receptor Ligand Interactions: Structural Cross Talk between Ligands and the Extracellular Domain” (PLoS ONE, 2014).
Entries after “also recorded” stand apart in the source; their conditions may differ.

Experiments:
[1] = tested on: nGLP-1R (N-terminal extracellular domain of GLP-1R, amino acids 24-145); test: Differential HDX of the nGLP-1R peptide […] in the presence of ligands; format: binding; settings: HDX-MS; for average change in % Deuterium (Δ %D) in nGLP-1R peptide WETVQKWRE: 7TM HDX buffer pH 7.5 (50 mM Hepes, 150 mM NaCl, 2% glycerol, 0.05% DDM, 0.01% CHS), stock 10 µM nGLP-1R, peptide ligands 20 µM or small molecules 100 µM, 1 h equilibration at 4°C, on-exchange 10-3600 s, 80% D2O, 4°C, 3-4 replicates, back exchange corrected with estimated 70% recovery; for protection to exchange of nGLP-1R (result in words): peptides spanning Trp32 to Glu40 of nGLP-1R, DDM/CHS micelles, pH 7.5, 4°C, significance P < 0.05 at two consecutive time points
Description: (§1) Exendin-4 (cat # E7144), HPLC grade H2O, D2O (99.9%), acetonitrile, formic acid, tris-(carboxyethyl)-phosphinehydrochloride (TCEP), NaCl, NaH2PO4 and glycerol were purchased from Sigma-Aldrich. Exendin-4[9-39] […] The GLP-1R ligands 6-BPPI (6-(2,5-dichlorobenzyl)-1-hydroxy-2-(2-morpholin-4-ylethyl)-1,6-dihydropyrrolo[3′,4′:5,6]pyrido[3,4-B]indol-3(2H)-one), Boc-5 [23], T-0632 (sodium (S)-3-[1-(2-fluorophenyl)-2,3-dihydro-3-[(3-isoquinolinyl-carbonyl)amino]-6-methoxy-2-oxo-1H-indole]propanoate), [25] and TT15 (2S)-2-[[(8S)-7-benzoyl-3-[4-[(3,4-dichlorophenyl)methoxy]phenyl]-2-oxo-1,6,8,9-tetrahydropyrido[4,3-g][1,4]benzoxazine-8-carbonyl]amino]-3-[4-(4-cyanophenyl)phenyl]propanoic acid) were synthesized according to standard or published methods at Eli Lilly. Trifluoroacetic acid (TFA, Sequanal grade) was obtained from Pierce. High purity n-dodecyl-β-D-maltoside (DDM) and cholesterol hemisuccinate (CHS) were purchased from Avanti Polar Lipids. The porcine pepsin-immobilized POROS 20 AL beads (particle size 20 µm) used to pack immobilized pepsin columns were purchased from Applied Biosystems. The model peptide for gas phase scrambling experiments, […], was purchased from the American Peptide Company (#350416).

[2] = tested on: chimera nGIP-R:GLP-1R (amino acids 1-124 of GIP-R (NP_000155) fused in-frame with amino acids 137-463 of GLP-1R); test: cAMP accumulation in HEK293 cells transfected with chimera nGIP-R:GLP-1R; format: cell-based; settings: GIPR/GLP-1R chimera, EC50 to EC80 concentrations of GLP-1
Procedure: (§2) cAMP accumulation assays were performed as previously described. HEK293 cells were transfected with plasmids expressing either wild-type GLP-1R (NP_002053) or chimera nGIP-R:GLP-1R (amino acids 1-124 of GIP-R (NP_000155) fused in-frame with amino acids 137-463 of GLP-1R).
(§3) Figure 4 Changes to HDX of nGLP-1R in the Presence of Peptide and Small Molecule Ligands. […] Deuterium exchange was measured in the presence of DDM/CHS micelles as indicated in the Experimental section The exendin-4[9-39] peptide ligand is colored gray. B) Table showing the average change in % Deuterium in this same nGLP-1R peptide ([…]) for four peptide ligands and four proposed small molecule ligands.

[3] = biological target: T1, wild-type GLP-1R (NP_002053) (Homo sapiens, UniProt P43220); test: cAMP accumulation in HEK293 cells transfected with wild-type GLP-1R; format: cell-based; settings: for IC50: IC50, antagonism of GLP-1 induced cAMP accumulation
T1 construct: HEK293 cells were transfected with plasmids expressing either wild-type GLP-1R (NP_002053); expressed in transfected cells; host or cells: HEK293
T1 sequence (P43220 24-463): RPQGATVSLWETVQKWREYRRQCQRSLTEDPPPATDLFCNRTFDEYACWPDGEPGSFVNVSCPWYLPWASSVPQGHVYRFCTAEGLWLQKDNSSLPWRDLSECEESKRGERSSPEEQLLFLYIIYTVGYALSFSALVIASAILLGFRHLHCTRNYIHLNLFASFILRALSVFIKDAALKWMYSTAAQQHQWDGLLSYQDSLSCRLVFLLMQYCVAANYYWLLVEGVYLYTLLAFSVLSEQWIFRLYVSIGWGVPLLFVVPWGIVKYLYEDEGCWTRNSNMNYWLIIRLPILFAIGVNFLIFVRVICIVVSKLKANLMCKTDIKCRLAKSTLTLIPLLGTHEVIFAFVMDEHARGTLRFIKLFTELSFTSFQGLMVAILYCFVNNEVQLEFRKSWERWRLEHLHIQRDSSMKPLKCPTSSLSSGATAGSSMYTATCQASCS
Procedure: as §2, §3

[4] = tested on: extracellular domain of GLP-1R; settings: cited from earlier work
[5] = pH 7.5
Procedure: All stock solutions and dilutions were made using the 7TM HDX buffer. The 7TM HDX buffers were composed of 50 mM Hepes (pH 7.5), 150 mM NaCl, 2% (v/v) glycerol, 0.05% (m/v) DDM, and 0.01% (m/v) CHS in either H2O or in D2O for on-exchange. All HDX stock solutions of the N-terminal extracellular domain of the glucagon-like peptide-1 receptor (nGLP-1R) were prepared at 10 µM nGLP-1R in the 7TM HDX H2O buffer. […] All HDX stock solutions of the peptides were at 10 µM. When ligands were studied in the presence of the nGLP-1R the stock solutions contained 20 µM nGLP-1R. When ligands and receptor were mixed in stock solutions they were allowed to equilibrate for one hour at 4°C.
Solution-phase amide HDX was carried out with a fully automated system described previously [17]. […]
Mass spectra were acquired in the range of m/z 300–2000 at a resolution of 60,000 for 8 min in positive ion mode on an LTQ Orbitrap XL ETD mass spectrometer (Thermo Fisher Scientific) equipped with an ESI source operated at capillary temperature of 225°C and spray voltage of 3.5 kV. The intensity weighted average m/z value (centroid) of each peptide's isotopic envelope was calculated with in-house developed software; Workbench (Pascal et al. 2013) and converted to % Deuterium values. […]

[6] = tested on: nGLP-1R (N-terminal extracellular domain of GLP-1R, amino acids 24-145); test: Differential HDX of peptide ligands in the presence vs absence of nGLP-1R; format: binding; settings: HDX-MS, stock 10 µM peptide with or without 20 µM nGLP-1R, DDM/CHS micelles, pH 7.5, 4°C; for protection to exchange of ligand amides near helix bend / FxxWL motif upon binding nGLP-1R: 10-3600 s, protection confined from Ala18 to Asn28
Description: as §1

[7] = tested on: nGLP-1R (N-terminal extracellular domain of GLP-1R, amino acids 24-145); test: Single amino acid resolution HDX by ETD of Phe22-Ser39 peptic peptide; format: binding; settings: DDM/CHS micelles
Procedure: To optimize the instrument parameters and to monitor gas-phase scrambling, we employed the model peptide […] described by the Jorgensen group. Complete deuteration was achieved by incubation of the peptide in deuterated buffer (20 mM NaH2PO4, pH 2.6) for one hour at 4°C. HDX off-exchange was initiated by a 10-fold dilution into infusion buffer (50% MeOH, 0.5 M CH3COOH, pH 2.6) followed by elution over the same LC configuration used for HDX after 30 s of off-exchange. Under these conditions the peptide eluted in ∼1.6 minutes. Full-scan and ETD MS/MS spectra were acquired on the LTQ Orbitrap XL ETD. Instrument conditions were identical to those published previously except the capillary temperature was set to 75°C. Varying isolation widths and capillary temperatures were tested to minimize scrambling and maintain ion signal intensity (Figure S3). A capillary temperature of 75°C and isolation width of 12 amu was used for ETD of exendin-4[9-39]. Five replicates were run after 30 s of deuterium exchange for exendin-4[9-39] in the presence and absence of nGLP-1R on the same LC configuration described above.

[8] = 30 s of exchange, apo vs nGLP-1R bound, 5 replicates

| Compound | average change in % Deuterium (Δ %D) in nGLP-1R peptide WETVQKWRE [1] [%] | protection to exchange of nGLP-1R (result in words) [1] | affinity for extracellular domain of GLP-1R (in words) [4] | deuterium incorporation / stability of hydrogen bonding network of the free peptide [5] | protection to exchange of ligand amides near helix bend / FxxWL motif upon binding nGLP-1R [6] | further results |
| --- | --- | --- | --- | --- | --- | --- |
| O=C1c2ncc3c(c2C(O)N1CCN1CCOCC1)c1ccccc1n3Cc1cc(Cl)ccc1Cl (centres unmarked) [6-BPPI, 6-(2,5-dichlorobenzyl)-1-hydroxy-2-(2-morpholin-4-ylethyl)-1,6-dihydropyrrolo[3′,4′:5,6]pyrido[3,4-B]indol-3(2H)-one] | -27 | thermodynamic stabilizing interactions |  |  |  | antagonism of GLP-1 signalling (result in words) [2]: not GIPR/GLP-1R; also recorded: inactive on a chimeric receptor; antagonism of GLP-1 signalling (result in words) ([3]; HEK293 cells, EC50 to EC80 concentrations of GLP-1): Dose-dependent blockade of GLP-1R signalling; also recorded: effective antagonist of the GLP-1R; IC50 ([3]; 10 pM GLP-1, HEK293 cells): 0.033 µM; IC50 ([3]; 30 pM GLP-1, HEK293 cells): 0.11 µM; IC50 ([3]; 100 pM GLP-1, HEK293 cells): 0.31 µM |
| COc1cc(C2C(NC(=O)c3ccc(NC(=O)OC(C)(C)C)cc3)(C(=O)O)C(c3ccc(OC(=O)c4cccs4)c(OC)c3)C2(NC(=O)c2ccc(NC(=O)OC(C)(C)C)cc2)C(=O)O)ccc1OC(=O)c1cccs1 (centres unmarked) [Boc-5] | -12 | thermodynamic stabilizing interactions |  |  |  |  |
| exendin-4: GLP-1R peptide agonist, Sigma-Aldrich cat # E7144; DPP4 resistant mimetic | -21 | significant protection to exchange | high affinity | Lower deuterium incorporation was observed for all homologous peptides | showed protection to their hydrogen bonding network around the FxxWL motif | change in deuterium exchange at N-terminal amino acids His1 to Glu17 upon binding nGLP-1R [6]: no statistically significant change in the magnitude of deuterium exchange |
| exendin-4[9-39]: N-terminal truncated exendin-4, a potent antagonist; Bachem cat # H-8740 | -20 | significant protection to exchange | high affinity | significantly destabilized in the presence of nonionic detergents as compared to the agonist exendin-4 | showed protection to their hydrogen bonding network around the FxxWL motif | deuterium incorporation for fragments from Trp25 to Asn28, absence of nGLP-1R ([7]; 30 s of exchange, apo state, 5 replicates): increasing deuterium incorporation for fragments from Trp25 to Asn28; change in deuterium incorporation at Asn28 turn in the presence of nGLP-1R [7, 8]: small but statistically significant increase in deuterium incorporation; protection at Trp25, Leu26 and Lys27 by nGLP-1R [7, 8]: Significant protection; deuterium exchanged at amide of Asn28 in the presence of nGLP-1R ([7]; exendin-4[9-39] with nGLP-1R, after 30 s of exchange, average of 5 replicates): 0.33 deuterium |
| oxyntomodulin: peptide agonist, Bachem #H-6058 | -10 | protection to exchange was observed |  |  |  |  |
